Data from patent US20250170252A1, “QUINONE PROTECTED FORMS AND CONJUGATES” (CAMBRIDGE ENTERPRISE LIMITED, priority 2022, published 2025).

How the values were obtained:
Assay type in all cases: cell-based
SkBr-3 = test: Toxicity with/without β-glucuronidase, SkBr-3; conditions: Homo sapiens, SK-BR-3; SkBr-3; read-out: IC50 β-lapachone, 1
Procedure: (§1) Assays assessing cytotoxicity of β-lapachone and derivatives were performed by CellTiter-Blue assay (Promega) according to the manufacturer's instructions. Briefly, adherent cancer-cell lines were plated at 20,000 cells/well in 96 well plates or suspension cell lines were plated at a concentration of 2×10^5 cells/mL in 24 well plates. Compound stocks in media were made by dilution of DMSO stocks containing the compound of interest to obtain a final in-plate DMSO concentration of only 0.1%. Incubation was performed for 48 h. Following incubation, media was replaced with media containing CellTiter-Blue (Promega) in 1:10 dilution and the plates were incubated for 1.5-4 h. The fluorescence of the plates was recorded (excitation 555 nm, emission 585 nm, MiniMax i3x Reader, Molecular Devices).
(§2) Cell viability was calculated by division of the fluorescence intensity of treated wells by that of the calculated average fluorescence intensity of replicate negative control wells containing cells with 0.1% DMSO only. Values and reported error bars represent the mean and standard error of the mean of three triplicate repeats for each concentration tested. IC50 values were calculated using GraphPad Prism 8 software.
(§3) The potential of compound 37a, glucuronide-PHB-BL, as a prodrug was investigated. As discussed above, at physiological pH the compound has a relatively slow-release rate. Toxicity of Gluc-PHB-BL 37a was tested against a range of cell lines with and without added β-glucuronidase. Addition of the enzyme mimics conditions of the solid tumour environment.

[1] = system: Aspc-1 pancreatic cancer cell line; test: CellTiter Glo viability assay, Aspc-1; conditions: Homo sapiens, ASPC1; Aspc-1, β-lapachone alone, 48 hours; read-out: IC50
Procedure: (§4) For CellTiter Glo viability assays, 10,000 cells per well were plated on Day 1 and were allowed to adhere to the plate surface for 24 hours. Optimized concentration ranges of prodrugs were determined and made via serial dilution. […] Cells were incubated with compound for 48 hours and viability was assessed on Day 4 using the CellTiter Glo Viability assay which measures metabolically active cells by quantifying the amount of ATP present.
(§5) Panc-1 cells were obtained from Tony Kouzarides' lab in the Gurdon Institute at the University of Cambridge and put into culture at passage 10 containing DMEM media (Gibco) supplemented with 1% Pen-Strep antibiotic (Gibco), 1% L-glutamine, and 10% fetal bovine serum (FBS, sterile-filtered). Aspc-1 cells were bought commercially from the American Type Culture Collection (ATCC) and put into culture containing RPMI 1640 media (Gibco) supplemented with 1% Pen-Strep antibiotic (Gibco), 1% L-glutamine, and 20% fetal bovine serum (FBS, sterile-filtered). All cell lines were started at passage 10 and passaged every 3 days by centrifuging at 1000 rpm for 4 minutes.

[2] = system: HL-60 (leukaemia cell line); test: Viability assay (CellTiter-Blue), HL-60; conditions: Homo sapiens
Procedure: as §1, with “MiniMax i3x” left out, “Devices). Cell viability was calculated by division of the fluorescence intensity of treated wells by that of the calculated average fluorescence intensity of replicate negative control wells containing cells with 0.1% DMSO only. Values and reported error bars represent the mean and standard error of the mean of three triplicate repeats for each concentration tested.” for “Devices).”

[3] = system: HeLa (cervical cancer cell line); test: Viability assay (CellTiter-Blue), HeLa; conditions: Homo sapiens
Procedure: as §1, with “MiniMax i3x” left out, “Devices). Cell viability was calculated by division of the fluorescence intensity of treated wells by that of the calculated average fluorescence intensity of replicate negative control wells containing cells with 0.1% DMSO only. Values and reported error bars represent the mean and standard error of the mean of three triplicate repeats for each concentration tested.” for “Devices).”

MOLM-13 [4] = test: Toxicity with/without β-glucuronidase, MOLM-13; conditions: Homo sapiens, MOLM-13; read-out: IC50 β-lapachone, 1
Procedure: as §1, §2, §3

[5] = system: range of cancer cell lines, including leukaemia, breast, colon, and cervical cancer; test: Toxicity to a range of cancer cell lines (panel); conditions: panel of cells
Procedure: as §1, with “MiniMax i3x” left out, “Devices). Cell viability was calculated by division of the fluorescence intensity of treated wells by that of the calculated average fluorescence intensity of replicate negative control wells containing cells with 0.1% DMSO only. Values and reported error bars represent the mean and standard error of the mean of three triplicate repeats for each concentration tested.” for “Devices).”

range of cell lines = test: Toxicity of Gluc-PHB-BL against a range of cell lines with and without added β-glucuronidase; conditions: control tests
Procedure: as §1, §2, §3

[6] = system: Panc-1 pancreatic cancer cell line; test: CellTiter Glo viability assay, Panc-1; conditions: Homo sapiens; Panc-1, β-lapachone alone, 48 hours; read-out: IC50
Procedure: as §4, §5

HL-60 = test: Toxicity with/without β-glucuronidase, HL-60; conditions: Homo sapiens, HL-60; read-out: IC50 β-lapachone, 1
Procedure: as §1, §2, §3

MOLM-13 [7] = test: Viability assay with small molecule prodrugs, Trypan Blue exclusion, MOLM-13; conditions: 5 μM, 24 h timepoint
Procedure: For assays assessing cytotoxicity of β-lapachone versus small molecule dipeptide prodrugs, suspension cells were plated into 24 well plates at a density of 2.5×10^5 cells/mL in 240 μL. Serial dilutions of compound were made up in PBS. 60 μL of each stock of either PBS, or compound in PBS was added to the cells to achieve the desired final concentration. After the specified incubation time, toxicity was assessed by counting of live cells using the Trypan Blue exclusion method with a Countess II Automated Cell Counter (ThermoFisher Scientific) according to the manufacturer's instructions. Cell viability was determined by division of average live cell number of treated wells by average live cell number for control wells treated with PBS only. Values recorded are the mean of three repeat wells, with error bars representing the standard error of the mean for each concentration tested. IC50 values were calculated using GraphPad Prism software.

HEK-293T = test: Toxicity with/without β-glucuronidase, HEK-293T; conditions: Homo sapiens, read-out: IC50 β-lapachone, 1
Procedure: as §1, §2, §3

CC1(C)CCC2=C(O1)c1ccccc1C(=O)C2=O [Compound 1, β-lapachone, reference compound] gave an IC50 (SkBr-3) of 2.75 µM, an IC50 [1] of 7.66 µM and an IC50 [2] of 1.4 µM. It also gave an IC50 [3] of 4.2 µM, an IC50 (MOLM-13 [4]) of 12.1 µM and an IC50 [5] of 1.1 to 4.2 µM. The “effect of β-glucuronidase addition on toxicity” value (range of cell lines) was “not significantly affected”, the IC50 [6] was 2.04 µM and the IC50 (HL-60) was 4.33 µM. For the same molecule, the “toxicity to MOLM-13” value (MOLM-13 [7]) was “complete cell death” and the IC50 (HEK-293T) was 2.91 µM.
